Data as given in article PMC11181322, “Copper(II) Complexes with Isomeric Morpholine-Substituted 2-Formylpyridine Thiosemicarbazone Hybrids as Potential Anticancer Drugs Inhibiting Both Ribonucleotide Reductase and Tubulin Polymerization: The Morpholine Position Matters” (Journal of Medicinal Chemistry, 2024).

What was measured:
[1] = pKa of the copper(II) complexes (UV–vis / pH-potentiometric titrations); details: 30% (v/v) DMSO/H2O, 25 °C
Experimental: The solution speciation of copper(II) complexes with H2L^3–H2L^6 was studied primarily by UV–vis spectrophotometric titrations in a 30% (v/v) DMSO/H2O solvent mixture as a function of pH.
An Agilent Carry 8454 diode array spectrophotometer was used to record the UV–vis spectra in the interval 200–800 nm. The path length was 1 cm. Proton dissociation constants (pKa) of the proligands and complexes were calculated by the computer program PSEQUAD.[94] Spectrophotometric titrations were performed on samples containing the proligands at a 50–100 μM concentration with a KOH solution in the presence of 0.1 M KCl at 25.0 ± 0.1 °C in the pH range from 2 to 11.5 in a 30% (v/v) DMSO/H2O solvent mixture, and the metal-to-ligand ratios were 1:0, 1:1, and 1:2. An Orion 710A pH meter equipped with a Metrohm combined electrode (type 6.0234.100) and a Metrohm 665 Dosimat buret were used for the titrations. […] Ar was also passed over the solutions during the titrations. Measurements were carried out in the range ca. 1.0–2.0 by preparing individual samples, in which KCl was partially or completely replaced by HCl, and pH values were calculated from the strong acid content. The conditional stability constants (K′) of the copper(II) complexes were calculated at pH 5.90 based on the spectral changes via the displacement reaction with EDTA in the presence 50 mM MES and 0.1 M KCl in water or in 30% (v/v) DMSO/H2O. In the competition experiments, the samples contained 25 μM copper(II) and 25 μM proligand, and the concentration of EDTA was varied from 0 to 400 μM. The conditional stability constants of the metal complexes (K′) and the individual spectra of the species were calculated by the computer program PSEQUAD.[94]

purified tubulin = test: Inhibition of polymerization of purified tubulin; assay type: biochemical; details: read-out: inhibition of tubulin IC50 ± SD
MES-SA cells [2] = test: Fluorescent protein-based cytotoxicity assay, MES-SA; assay type: cell-based, human; details: 120 h; ± SD; n = 3
Text: The cytotoxic activity of proligands H2L^3–H2L^6 and their copper(II) complexes 3–6 was investigated in the MES-SA (human uterine sarcoma) and in its MDR counterpart (MES-SA/Dx5) cell lines by a fluorescent protein-based assay.[73]
The human uterine sarcoma cell lines MES-SA and the doxorubicin selected MES-SA-Dx5 were obtained from ATCC (MES-SA: No. CRL-1976, MES-SA/Dx5: No. CRL-1977) and were used for the intracellular ROS generation studies. For cytotoxicity, we used the fluorescent cell lines MES-SA mCherry and MES-SA/Dx5 eGFP, which were created by lentiviral transductions of the respective genes.[73] The phenotype of the resistant cells was maintained by 500 nM doxorubicin treatment a week before use and was verified using cytotoxicity assays. Cells were cultivated at 37 °C, 5% CO2 in Dulbecco’s modified Eagle's Medium (DMEM, Sigma-Aldrich), supplemented with 10% fetal bovine serum, 5 mM glutamine, and 50 unit/mL penicillin and streptomycin (Thermo Fisher).
MES-SA mCherry and MES-SA/Dx5 eGFP cell suspensions were seeded after trypsinization at 2500 cells/20 μL density on 384-well plates, containing 20 μL of completed medium. The next day, serial dilution of the compounds was prepared and added in an additional 20 μL, with or without 0.4 μM Tariquidar. Liquid handling steps were performed by a Hamilton StarLet robot. […] The mean and standard deviation of the pIC50 values were calculated and converted to IC50 values.

[3] = Conditional stability constants of the copper(II) complexes by EDTA displacement (UV–vis); assay type: physicochemical; details: for logK′5.9 (DMSO/H2O) / logK′5.9 (H2O): EDTA displacement, UV–vis, 25 °C; for logK′5.9 (DMSO/H2O): pH 5.9, 30% (v/v) DMSO/H2O; for logK′5.9 (H2O): pH 5.9, water, I = 0.1 M (KCl); for pCu5.9 (=–log[Cu(II)]): calcd. at pH 5.9, cL = cCu(II) = 1 μM
Experimental: The stability constants of 3–6 were determined by EDTA competition experiments monitored by UV–vis spectrophotometry at pH 5.9, where the [Cu(HL)]^+ species is dominant. Since the displacement of the TSC ligand by EDTA is relatively slow, a 2 h reaction time was used to reach equilibrium. Upon increasing the concentration of EDTA, the absorbance of the characteristic S → Cu charge transfer band at 400–416 nm decreased (see, for example, Figure 3 for the copper(II)–H2L^4 (1:1) system).[68] The experiments were performed in both aqueous solution and the 30% (v/v) DMSO/H2O solvent mixture. The determined conditional (apparent) formation constants (log K′5.9) are rather similar (see Table 2) in both media. However, the values are lower in the DMSO/H2O solvent mixture than in aqueous solution, presumably due to coordination of DMSO to copper(II). An analogous observation was reported for the copper(II) complex of Triapine.[67] […] To compare the copper(II) binding ability of the studied TSCs H2L^3–H2L^6 at pH 5.9 (at which the conditional constants were determined), pCu (−log [Cu(II)]) values were also computed using the experimentally determined equilibrium constants (Table 2). The higher pCu value indicates a stronger metal ion binding ability of the ligand under given circumstances. The ligands form complexes with fairly similar stability, in agreement with the conditional stability constants. […] A similar behavior was reported for aqueous solutions of the N-terminally dimethylated derivative of the 2-pyridinecarboxaldehyde TSC (PTSC)[69] and for the corresponding morpholine-hybrid Morph-dm-FTSC.[52] In particular, the calculated pCu values were also very close, 13.17 for PTSC vs 13.08 for Morph-dm-FTSC calculated at pH 7.4.
The path length was 1 cm.

MES-SA cells [4] = test: Cell cycle analysis, MES-SA; assay type: cell-based, human; details: for G0/G1 / G2/M / S: MES-SA
Experimental: (§1) Cell cycle arrest in S-phase has been observed for Triapine analogues at concentrations ranging from 0.25 to 5.0 μM,[82],[83] in line with a mechanism of action relying on RNR inhibition.
(§2) Figure S18. Cell cycle arrest for (a) proligand H2L4 and (b) complex 4 in MES-SA cells, as
(§3) well as for (c) proligand H2L4 and (d) complex 4 in the MES-SA/Dx5 cancer cell line.
(§4) Table S4. Cell cycle arrest for proligand H2L4 and complex 4 in the MES-SA and MES-
(§5) SA/Dx5 cancer cell lines.
(§6) H2L4 (MES-SA) H2L4 (MES-SA/Dx5) complex 4 (MES-SA) complex 4 (MES-SA/Dx5)
(§7) Table S5. Cell cycle arrest for proligand H2L6 and complex 6 in the MES-SA and MES-
(§8) H2L6 (MES-SA) H2L6 (MES-SA/Dx5) complex 6 (MES-SA) complex 6 (MES-SA/Dx5)
(§9) (1 picture or pasted object on this page, not shown here)

MES-SA cells [5] = test: Intracellular ROS generation, DCF-DA assay, MES-SA; assay type: cell-based, human; details: 25 μM, 4 h treatment
Experimental: (§10) ROS accumulation was evaluated in both the MES-SA and MES-SA/Dx5 cell lines by using 2′,7′-dichlorodihydrofluorescein diacetate (H2DCF-DA) as a probe. This compound enters the cells by passive diffusion, and after oxidation, it is converted to the highly fluorescent 2′,7′-dichlorofluorescein (DCF), enabling the estimation of intracellular ROS levels. ROS generation was measured after a 4 h treatment with 25 μM H2L^6 or 6; tert-butylhydroperoxide (TBHP, 25 μM) was used as a positive control.
(§11) Figure 6 Intracellular ROS generation measured by the DCF-DA assay in MES-SA (filled bars) and MES-SA/Dx5 (lattice bars) cells, after a 4 h treatment with the indicated compounds at 25 μM: H2L^6 (gray), complex 6 (yellow), Triapine (green), and TBHP (brown). Values indicate fold change relative to the fluorescence of the cells treated with fluorescent probe alone (orange bars), following normalization to the initial fluorescence at the beginning of the incubation. Paired t test to the medium control was calculated; […]; **P < 0.01. Values were calculated from at least three independent experiments.
(§12) The human uterine sarcoma cell lines MES-SA and the doxorubicin selected MES-SA-Dx5 were obtained from ATCC (MES-SA: No. CRL-1976, MES-SA/Dx5: No. CRL-1977) and were used for the intracellular ROS generation studies. […]

MES-SA/Dx5 cells [6] = test: Intracellular ROS generation, DCF-DA assay, MES-SA/Dx5; assay type: cell-based, human; details: 25 μM, 4 h treatment
Experimental: as §10, §11, §12

MES-SA/Dx5 cells [7] = test: Cell cycle analysis, MES-SA/Dx5; assay type: cell-based, human
Experimental: as §1, §2, §3, §4, §5, §6, §7, §8, §9

[8] = cell line not given (figures: MES-SA and MES-SA/Dx5)

| SMILES | pKa[Cu(H2L)]2+ ([1]; UV–vis spectrophotometry) | pKa[Cu(H2L)]2+ ([1]; pH potentiometry) | IC50 (purified tubulin) | IC50 (MES-SA cells [2]) | logK′5.9 (DMSO/H2O) [3] | logK′5.9 (H2O) [3] | pCu5.9 (=–log[Cu(II)]) [3] | G0/G1 (MES-SA cells [4]; 2 µM) | G2/M (MES-SA cells [4]; 2 µM) | S (MES-SA cells [4]; 2 µM) | G0/G1 (MES-SA cells [4]; 4 µM) | G2/M (MES-SA cells [4]; 4 µM) | S (MES-SA cells [4]; 4 µM) | G0/G1 (MES-SA cells [4]; 8 µM) | G2/M (MES-SA cells [4]; 8 µM) | S (MES-SA cells [4]; 8 µM) | G0/G1 (MES-SA/Dx5 cells [7]; MES-SA/Dx5, 2 µM) | G2/M (MES-SA/Dx5 cells [7]; MES-SA/Dx5, 2 µM) | S (MES-SA/Dx5 cells [7]; MES-SA/Dx5, 2 µM) | G0/G1 (MES-SA/Dx5 cells [7]; MES-SA/Dx5, 4 µM) | further results |
| --- | --- | --- | --- | --- | --- | --- | --- | --- | --- | --- | --- | --- | --- | --- | --- | --- | --- | --- | --- | --- | --- |
| Cc1cc(NC(=NN=Cc2ccc(CN3CCOCC3)cn2)[S][Cu][Cl])cc(C)c1O [complex 5, [Cu(HL^5)Cl]·2.5H2O] | 4.75 ± 0.01 | 4.95 ± 0.04 | 15 ± 0.4 µM | 31 ± 6.2 µM | 9.99 ± 0.01 | 13.39 ± 0.01 | 8.02 | – | – | – | – | – | – | – | – | – | – | – | – | – | – |
| Cc1cc(NC(=NN=Cc2cccc(CN3CCOCC3)n2)[S][Cu][Cl])cc(C)c1O [complex 6, [Cu(HL^6)Cl]·H2O] | – | – | 5 ± 0.3 µM | 0.29 µM | 10.09 ± 0.04 | 13.73 ± 0.02 | 8.07 | 74% | 17% | 9% | 35% | 55% | 11% | 24% | 68% | 8% | 53% | 35% | 12% | 39% | concentrations inducing G2/M-phase arrest (MES-SA cells [4]; [8]): ≥ 4 µM; Intracellular ROS generation (MES-SA cells [5]): significant ROS induction; Intracellular ROS generation (MES-SA/Dx5 cells [6]): significant ROS induction; G2/M (MES-SA/Dx5 cells [7]; MES-SA/Dx5, 4 µM): 48%; S (MES-SA/Dx5 cells [7]; MES-SA/Dx5, 4 µM): 12%; G0/G1 (MES-SA/Dx5 cells [7]; MES-SA/Dx5, 8 µM): 21%; G2/M (MES-SA/Dx5 cells [7]; MES-SA/Dx5, 8 µM): 68%; S (MES-SA/Dx5 cells [7]; MES-SA/Dx5, 8 µM): 11% |
| Cc1cc(NC(=NN=Cc2cc(CN3CCOCC3)ccn2)[S][Cu][Cl])cc(C)c1O [complex 4, [Cu(HL^4)Cl]·1.5H2O] | 4.48 ± 0.01 | 4.60 ± 0.02 | 15 ± 1 µM | 19.2 ± 1.7 µM | 10.07 ± 0.01 | 13.35 ± 0.02 | 8.06 | 63% | 21% | 16% | 56% | 25% | 19% | 50% | 30% | 20% | 48% | 32% | 20% | 43% | cell cycle effect (MES-SA cells [4]; [8]): gradually increased the G2/M ratio in a concentration-dependent manner; G2/M (MES-SA/Dx5 cells [7]; MES-SA/Dx5, 4 µM): 36%; S (MES-SA/Dx5 cells [7]; MES-SA/Dx5, 4 µM): 21%; G0/G1 (MES-SA/Dx5 cells [7]; MES-SA/Dx5, 8 µM): 47%; G2/M (MES-SA/Dx5 cells [7]; MES-SA/Dx5, 8 µM): 36%; S (MES-SA/Dx5 cells [7]; MES-SA/Dx5, 8 µM): 16% |
